# Legend:
# Conditions in all cases: recombinant enzyme
# Cytochrome P450 2C9 = Cytochrome P450 2C9 (Homo sapiens, UniProt P11712); test: (§1) Drug activation in human Hep3B cells assessed as human CYP2C9-mediated drug metabolism-induced cytotoxicity measured as decrease in cell viability at 300 uM pre-incubated with BSO for 18 hrs followed by incubation with compound for 3 hrs in presence of NADPH measured after 24 hrs in absence of compound, CYP3A4 and NADPH by cell titer-glo luminescence assay relative to BSO alone
# Sequence of Cytochrome P450 2C9 (P11712 whole entry): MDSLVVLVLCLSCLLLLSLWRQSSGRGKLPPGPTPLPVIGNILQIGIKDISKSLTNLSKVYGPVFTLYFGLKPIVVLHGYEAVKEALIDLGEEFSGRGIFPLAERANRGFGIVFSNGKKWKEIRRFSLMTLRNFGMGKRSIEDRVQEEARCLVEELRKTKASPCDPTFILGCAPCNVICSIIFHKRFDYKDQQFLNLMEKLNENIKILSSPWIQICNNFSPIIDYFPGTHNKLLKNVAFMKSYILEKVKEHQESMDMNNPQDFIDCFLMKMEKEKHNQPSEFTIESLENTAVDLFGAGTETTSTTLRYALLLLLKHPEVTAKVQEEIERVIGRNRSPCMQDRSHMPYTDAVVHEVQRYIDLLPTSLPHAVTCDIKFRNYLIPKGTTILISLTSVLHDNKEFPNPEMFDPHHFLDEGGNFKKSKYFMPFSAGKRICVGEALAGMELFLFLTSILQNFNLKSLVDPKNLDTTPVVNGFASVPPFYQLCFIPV
# Cytochrome P450 2D6 = Cytochrome P450 2D6 (Homo sapiens, UniProt P10635); test: as §1, with “CYP2D6-mediated” for “CYP2C9-mediated”
# Sequence of Cytochrome P450 2D6 (P10635 whole entry): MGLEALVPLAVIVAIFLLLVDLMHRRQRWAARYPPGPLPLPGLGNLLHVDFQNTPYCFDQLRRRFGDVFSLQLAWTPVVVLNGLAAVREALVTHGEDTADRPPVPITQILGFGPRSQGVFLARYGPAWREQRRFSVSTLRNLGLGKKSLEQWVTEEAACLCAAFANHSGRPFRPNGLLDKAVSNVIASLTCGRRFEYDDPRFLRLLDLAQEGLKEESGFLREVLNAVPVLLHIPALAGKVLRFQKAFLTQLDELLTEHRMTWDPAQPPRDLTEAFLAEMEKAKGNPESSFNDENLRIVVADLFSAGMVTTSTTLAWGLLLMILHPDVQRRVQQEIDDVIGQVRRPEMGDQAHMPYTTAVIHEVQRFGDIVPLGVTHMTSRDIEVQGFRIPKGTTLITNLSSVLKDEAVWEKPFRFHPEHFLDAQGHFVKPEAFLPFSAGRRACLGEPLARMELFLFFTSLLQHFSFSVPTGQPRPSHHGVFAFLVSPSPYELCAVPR
# Cytochrome P450 3A4 = Cytochrome P450 3A4 (Homo sapiens, UniProt P08684); test: as §1, with “CYP3A4-mediated” for “CYP2C9-mediated”
# Sequence of Cytochrome P450 3A4 (P08684 whole entry): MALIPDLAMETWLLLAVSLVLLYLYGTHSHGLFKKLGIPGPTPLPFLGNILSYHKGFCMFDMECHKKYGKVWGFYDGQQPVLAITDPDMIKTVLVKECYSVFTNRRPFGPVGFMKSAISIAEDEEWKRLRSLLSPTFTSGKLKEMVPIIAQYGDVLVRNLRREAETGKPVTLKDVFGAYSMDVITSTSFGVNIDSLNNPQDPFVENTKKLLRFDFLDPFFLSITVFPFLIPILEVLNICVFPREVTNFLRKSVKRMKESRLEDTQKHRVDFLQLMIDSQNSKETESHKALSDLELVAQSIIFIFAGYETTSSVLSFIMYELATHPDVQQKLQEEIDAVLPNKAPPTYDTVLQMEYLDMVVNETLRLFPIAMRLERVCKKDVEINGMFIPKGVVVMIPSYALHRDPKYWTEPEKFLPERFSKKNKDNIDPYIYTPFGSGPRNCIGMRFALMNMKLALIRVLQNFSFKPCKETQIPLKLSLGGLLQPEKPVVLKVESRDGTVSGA
smiles,measurement,setting,value
CNC(=C[N+](=O)[O-])NCCSCc1csc(CN(C)C)n1 [NIZATIDINE],FC,Cytochrome P450 2C9,1
same,FC,Cytochrome P450 2D6,1
same,FC,Cytochrome P450 3A4,1
Oc1ncnc2[nH]ncc12 [ALLOPURINOL],FC,Cytochrome P450 2C9,1
same,FC,Cytochrome P450 2D6,1
same,FC,Cytochrome P450 3A4,1
Cc1oncc1C(=O)Nc1ccc(C(F)(F)F)cc1 [LEFLUNOMIDE],FC,Cytochrome P450 2D6,1
same,FC,Cytochrome P450 3A4,1
C[N+](C)(C)CC(=O)O [BETAINE],FC,Cytochrome P450 2C9,1
same,FC,Cytochrome P450 2D6,1
same,FC,Cytochrome P450 3A4,1
Nc1c(CC(=O)O)cccc1C(=O)c1ccc(Br)cc1 [BROMFENAC],FC,Cytochrome P450 2C9,1
same,FC,Cytochrome P450 2D6,1
same,FC,Cytochrome P450 3A4,1
Cc1ccc(C(=O)c2cc(O)c(O)c([N+](=O)[O-])c2)cc1 [TOLCAPONE],FC,Cytochrome P450 2C9,1
same,FC,Cytochrome P450 2D6,1
same,FC,Cytochrome P450 3A4,1
CS(=O)(=O)Nc1ccc([N+](=O)[O-])cc1Oc1ccccc1 [NIMESULIDE],FC,Cytochrome P450 2C9,1
CC(=O)Oc1ccccc1C(=O)O [ASPIRIN],FC,Cytochrome P450 2C9,1
same,FC,Cytochrome P450 2D6,1
same,FC,Cytochrome P450 3A4,1
O=C(O)c1cccnc1 [NIACIN],FC,Cytochrome P450 2D6,1
same,FC,Cytochrome P450 3A4,1
CCCCCCCCCCC[C@@H](C[C@@H]1OC(=O)[C@H]1CCCCCC)OC(=O)[C@H](CC(C)C)NC=O [ORLISTAT],FC,Cytochrome P450 2C9,1
same,FC,Cytochrome P450 2D6,1
same,FC,Cytochrome P450 3A4,1
COc1ccccc1Oc1c(NS(=O)(=O)c2ccc(C(C)(C)C)cc2)nc(-c2ncccn2)nc1OCCO [BOSENTAN],FC,Cytochrome P450 2C9,1
same,FC,Cytochrome P450 2D6,1
same,FC,Cytochrome P450 3A4,1
Cc1cn([C@H]2C=C[C@@H](CO)O2)c(=O)[nH]c1=O [STAVUDINE],FC,Cytochrome P450 2C9,1
same,FC,Cytochrome P450 2D6,1
same,FC,Cytochrome P450 3A4,1
CN1Cc2c(N)cccc2C(c2ccccc2)C1 (stereo unspecified) [NOMIFENSINE],FC,Cytochrome P450 2C9,0.3
same,FC,Cytochrome P450 2D6,0.3
same,FC,Cytochrome P450 3A4,0.3
CCOc1ccccc1OCCN[C@H](C)Cc1ccc(OC)c(S(N)(=O)=O)c1 [TAMSULOSIN],FC,Cytochrome P450 2C9,1
same,FC,Cytochrome P450 3A4,1
CCOC(=O)C1=C[C@@H](OC(CC)CC)[C@H](NC(C)=O)[C@@H](N)C1 [OSELTAMIVIR],FC,Cytochrome P450 2C9,1
same,FC,Cytochrome P450 2D6,1
same,FC,Cytochrome P450 3A4,1
Nc1nc2nc[nH]c2c(=S)[nH]1 [THIOGUANINE],FC,Cytochrome P450 2C9,1
same,FC,Cytochrome P450 2D6,1
same,FC,Cytochrome P450 3A4,1
CC(=O)N(O)CCCCCNC(=O)CCC(=O)N(O)CCCCCNC(=O)CCC(=O)N(O)CCCCCN [DEFEROXAMINE],FC,Cytochrome P450 2C9,1
same,FC,Cytochrome P450 2D6,1
same,FC,Cytochrome P450 3A4,1
CN(Cc1cnc2nc(N)nc(N)c2n1)c1ccc(C(=O)N[C@@H](CCC(=O)O)C(=O)O)cc1 [METHOTREXATE],FC,Cytochrome P450 2D6,1
same,FC,Cytochrome P450 3A4,1
COC(c1ccccc1)(c1ccccc1)[C@H](Oc1nc(C)cc(C)n1)C(=O)O [AMBRISENTAN],FC,Cytochrome P450 2C9,1
same,FC,Cytochrome P450 2D6,1
same,FC,Cytochrome P450 3A4,1
O=C(O)COc1ccc(C(=O)c2cccs2)c(Cl)c1Cl,FC,Cytochrome P450 2C9,1
same,FC,Cytochrome P450 2D6,1
same,FC,Cytochrome P450 3A4,1
Nc1nc(NC2CC2)c2ncn([C@H]3C=C[C@@H](CO)C3)c2n1 [ABACAVIR],FC,Cytochrome P450 2C9,1
same,FC,Cytochrome P450 2D6,1
same,FC,Cytochrome P450 3A4,1
CN(C)c1ccc(O)c2c1C[C@H]1C[C@H]3[C@H](N(C)C)C(O)=C(C(N)=O)C(=O)[C@@]3(O)C(O)=C1C2=O [MINOCYCLINE],FC,Cytochrome P450 2C9,1
same,FC,Cytochrome P450 2D6,1
same,FC,Cytochrome P450 3A4,1
CC(=O)CC(c1ccccc1)c1c(O)c2ccccc2oc1=O (stereo unspecified) [WARFARIN],FC,Cytochrome P450 2C9,1
same,FC,Cytochrome P450 2D6,1
same,FC,Cytochrome P450 3A4,1
Cc1ccnc2c1NC(=O)c1cccnc1N2C1CC1 [NEVIRAPINE],FC,Cytochrome P450 2C9,1
same,FC,Cytochrome P450 2D6,1
same,FC,Cytochrome P450 3A4,1
COC(=O)CCc1ccc(OCC(O)CNC(C)C)cc1 (stereo unspecified) [ESMOLOL],FC,Cytochrome P450 2C9,1
same,FC,Cytochrome P450 2D6,1
same,FC,Cytochrome P450 3A4,1
CC(NC(C)(C)C)C(=O)c1cccc(Cl)c1 (stereo unspecified) [BUPROPION],FC,Cytochrome P450 2C9,1
same,FC,Cytochrome P450 2D6,1
same,FC,Cytochrome P450 3A4,1
Nc1ccn([C@H]2CC[C@@H](CO)O2)c(=O)n1 [ZALCITABINE],FC,Cytochrome P450 2C9,1
same,FC,Cytochrome P450 2D6,1
same,FC,Cytochrome P450 3A4,1
COCCc1ccc(OCC(O)CNC(C)C)cc1 (stereo unspecified) [METOPROLOL],FC,Cytochrome P450 2C9,1
same,FC,Cytochrome P450 2D6,1
same,FC,Cytochrome P450 3A4,1
O=C(O)c1cc(-c2ccccc2)nc2ccccc12 [CINCHOPHEN],FC,Cytochrome P450 2C9,1
same,FC,Cytochrome P450 2D6,1
same,FC,Cytochrome P450 3A4,1
CC(C(=O)O)c1ccc2oc(-c3ccc(Cl)cc3)nc2c1 (stereo unspecified) [BENOXAPROFEN],FC,Cytochrome P450 2C9,1
same,FC,Cytochrome P450 2D6,1
same,FC,Cytochrome P450 3A4,1
CC[C@H](C)C(=O)O[C@H]1C[C@H](O)C=C2C=C[C@H](C)[C@H](CC[C@@H](O)C[C@@H](O)CC(=O)O)[C@H]21 [PRAVASTATIN],FC,Cytochrome P450 2C9,1
same,FC,Cytochrome P450 2D6,1
same,FC,Cytochrome P450 3A4,1
O=c1[nH]cnc2c1ncn2[C@H]1CC[C@@H](CO)O1 [DIDANOSINE],FC,Cytochrome P450 2C9,1
same,FC,Cytochrome P450 2D6,1
same,FC,Cytochrome P450 3A4,1
C[C@H]1O[C@@H](O[C@H]2[C@@H](O)C[C@H](O[C@H]3[C@@H](O)C[C@H](O[C@H]4CC[C@@]5(C)[C@H](CC[C@@H]6[C@@H]5C[C@@H](O)[C@]5(C)[C@@H](C7=CC(=O)OC7)CC[C@]65O)C4)O[C@@H]3C)O[C@@H]2C)C[C@H](O)[C@@H]1O [DIGOXIN],FC,Cytochrome P450 2C9,1
same,FC,Cytochrome P450 2D6,1
same,FC,Cytochrome P450 3A4,1
O=C(CCCN1CCC(O)(c2ccc(Cl)cc2)CC1)c1ccc(F)cc1 [HALOPERIDOL],FC,Cytochrome P450 2C9,1
same,FC,Cytochrome P450 2D6,1
same,FC,Cytochrome P450 3A4,1
CCCNC(=O)NS(=O)(=O)c1ccc(Cl)cc1 [CHLORPROPAMIDE],FC,Cytochrome P450 2C9,1
same,FC,Cytochrome P450 2D6,1
same,FC,Cytochrome P450 3A4,1
C[C@@](Cc1ccc(O)c(O)c1)(NN)C(=O)O [CARBIDOPA ANHYDROUS],FC,Cytochrome P450 2C9,0.6
same,FC,Cytochrome P450 2D6,0.6
same,FC,Cytochrome P450 3A4,0.6
CS(=O)(=O)OCCCCOS(C)(=O)=O [BUSULFAN],FC,Cytochrome P450 2C9,1
same,FC,Cytochrome P450 2D6,1
same,FC,Cytochrome P450 3A4,1
O=P1(N(CCCl)CCCl)NCCCO1 (stereo unspecified) [CYCLOPHOSPHAMIDE ANHYDROUS],FC,Cytochrome P450 2C9,1
same,FC,Cytochrome P450 2D6,1
same,FC,Cytochrome P450 3A4,1
Nc1ccc(C(=O)O)c(O)c1 [AMINOSALICYLIC ACID],FC,Cytochrome P450 2C9,1
same,FC,Cytochrome P450 2D6,1
same,FC,Cytochrome P450 3A4,1
CC1(C)S[C@@H]2[C@H](NC(=O)[C@H](N)c3ccc(O)cc3)C(=O)N2[C@H]1C(=O)O [AMOXICILLIN],FC,Cytochrome P450 2C9,1
same,FC,Cytochrome P450 2D6,1
same,FC,Cytochrome P450 3A4,1
CCc1cccc2c3c([nH]c12)C(CC)(CC(=O)O)OCC3 (stereo unspecified) [ETODOLAC],FC,Cytochrome P450 2C9,1
same,FC,Cytochrome P450 2D6,1
same,FC,Cytochrome P450 3A4,1
COC1=CC(=O)C[C@@H](C)[C@]12Oc1c(Cl)c(OC)cc(OC)c1C2=O [GRISEOFULVIN],FC,Cytochrome P450 2C9,1
same,FC,Cytochrome P450 2D6,1
same,FC,Cytochrome P450 3A4,1
Nc1nc2c(ncn2COCCO)c(=O)[nH]1 [ACYCLOVIR],FC,Cytochrome P450 2C9,1
same,FC,Cytochrome P450 2D6,1
same,FC,Cytochrome P450 3A4,1
CC(C)(C)NCC(O)c1ccc(O)c(CO)c1 (stereo unspecified) [ALBUTEROL],FC,Cytochrome P450 2C9,1
same,FC,Cytochrome P450 2D6,1
same,FC,Cytochrome P450 3A4,1
CCCCNC(=O)NS(=O)(=O)c1ccc(C)cc1 [TOLBUTAMIDE],FC,Cytochrome P450 2D6,1
CCC1(c2ccccc2)C(=O)NCNC1=O [PRIMIDONE],FC,Cytochrome P450 2C9,1
same,FC,Cytochrome P450 2D6,1
same,FC,Cytochrome P450 3A4,1
CC[C@@H](CO)NCCN[C@@H](CC)CO [ETHAMBUTOL],FC,Cytochrome P450 2C9,1
same,FC,Cytochrome P450 2D6,1
same,FC,Cytochrome P450 3A4,1
CC(C)NCC(O)c1cc(O)cc(O)c1 (stereo unspecified) [METAPROTERENOL],FC,Cytochrome P450 2C9,1
same,FC,Cytochrome P450 2D6,1
same,FC,Cytochrome P450 3A4,1
CN(C)/N=N/c1[nH]cnc1C(N)=O [DACARBAZINE],FC,Cytochrome P450 2D6,1
same,FC,Cytochrome P450 3A4,1
Cc1cccc(C)c1OCC(C)N (stereo unspecified) [MEXILETINE],FC,Cytochrome P450 2C9,1
same,FC,Cytochrome P450 2D6,1
same,FC,Cytochrome P450 3A4,1
CC(C(=O)O)c1ccc(-c2ccccc2)c(F)c1 (stereo unspecified) [FLURBIPROFEN],FC,Cytochrome P450 2C9,1
same,FC,Cytochrome P450 2D6,1
same,FC,Cytochrome P450 3A4,1
CCc1ccc(CCOc2ccc(CC3SC(=O)NC3=O)cc2)nc1 (stereo unspecified) [PIOGLITAZONE],FC,Cytochrome P450 2C9,1
same,FC,Cytochrome P450 2D6,1
same,FC,Cytochrome P450 3A4,1
NC[C@H]1O[C@H](O[C@H]2[C@H](O)[C@@H](O[C@H]3O[C@H](CO)[C@@H](O)[C@H](N)[C@H]3O)[C@H](N)C[C@@H]2N)[C@H](O)[C@@H](O)[C@@H]1O [KANAMYCIN],FC,Cytochrome P450 2C9,1
same,FC,Cytochrome P450 2D6,1
same,FC,Cytochrome P450 3A4,1
C[C@H](CS)C(=O)N1CCC[C@H]1C(=O)O [CAPTOPRIL],FC,Cytochrome P450 2C9,1
same,FC,Cytochrome P450 2D6,1
same,FC,Cytochrome P450 3A4,1
CCCC(CCC)C(=O)O [VALPROIC ACID],FC,Cytochrome P450 2C9,1
same,FC,Cytochrome P450 2D6,1
same,FC,Cytochrome P450 3A4,1
NC(=O)N1c2ccccc2C=Cc2ccccc21 [CARBAMAZEPINE],FC,Cytochrome P450 2C9,1
same,FC,Cytochrome P450 2D6,1
same,FC,Cytochrome P450 3A4,1
Nc1nc2ncc(CNc3ccc(C(=O)N[C@@H](CCC(=O)O)C(=O)O)cc3)nc2c(=O)[nH]1 [FOLIC ACID],FC,Cytochrome P450 2C9,0.6
same,FC,Cytochrome P450 2D6,0.6
same,FC,Cytochrome P450 3A4,0.6
[H]/N=C(/N)N[C@H]1[C@H](O)[C@@H](O)[C@H](O[C@@H]2O[C@@H](C)[C@](O)(C=O)[C@H]2O[C@@H]2O[C@@H](CO)[C@H](O)[C@@H](O)[C@@H]2NC)[C@@H](N/C(N)=N\[H])[C@@H]1O [STREPTOMYCIN],FC,Cytochrome P450 2C9,1
same,FC,Cytochrome P450 2D6,1
same,FC,Cytochrome P450 3A4,1
Sc1ncnc2nc[nH]c12 [MERCAPTOPURINE ANHYDROUS],FC,Cytochrome P450 2D6,1
same,FC,Cytochrome P450 3A4,1
NC(=O)c1ncn([C@@H]2O[C@H](CO)[C@@H](O)[C@H]2O)n1 [RIBAVIRIN],FC,Cytochrome P450 2D6,1
same,FC,Cytochrome P450 3A4,1
CCCCCCCCCCCCOS(=O)(=O)O.CC[C@H]1OC(=O)[C@H](C)[C@@H](O[C@H]2C[C@@](C)(OC)[C@@H](O)[C@H](C)O2)[C@H](C)[C@@H](O[C@@H]2O[C@H](C)C[C@H](N(C)C)[C@H]2O)[C@](C)(O)C[C@@H](C)C(=O)[C@H](C)[C@@H](O)[C@]1(C)O,FC,Cytochrome P450 2D6,1
same,FC,Cytochrome P450 3A4,1
